Measured values reported in publication PMC5517562, “Design and discovery of novel monastrol-1,3,5-triazines as potent anti-breast cancer agent via attenuating Epidermal Growth Factor Receptor tyrosine kinase” (Scientific Reports, 2017).

Columns and labels:
EGFR-TK = target: T1, EGFR-TK (Homo sapiens, UniProt P00533); assay: EGFR tyrosine kinase inhibitory activity (Kinase-Glo Plus luminescence); assay type: biochemical; conditions: at 10 µM; read-out: Percent of Inhibition, EGFR tyrosine kinase
T1 construct: 0.2 mg/mL Poly (Glu, Tyr) substrate, 10 mM ATP and EGFR
Experimental: Kinase activity was determined using Kinase-Glo Plus luminescence kinase assay kit, by quantitating the amount of ATP remaining in the solution of kinase reaction. The luminescent signal is correlated with the residual amount present and it was inversely related with kinase activity. The tested compounds were diluted to 100 mM in 10% DMSO, then […] of the dilution was added to a 50 mL reaction. All of the enzymatic reactions were performed at 30 °C for 40 min, 50 mL of reaction mixture contains 10 mM MgCl2, 40 mM Tris, pH 7.4, 0.1 mg/mL BSA, 0.2 mg/mL Poly (Glu, Tyr) substrate, 10 mM ATP and EGFR. Incubate the plate for 5 min at r.t. then add 50 mL of Kinase-GloPlus Luminescence kinase assay to each reaction. ADP-Glo assay kit is the protein kinase assays used to determine IC50 values in which ADP generation was measured as it leads to an increase in luminescence signal. The reaction mixture was incubated in a 96-well plate at 30 °C for 30 min, after the incubation period add 25 mL of ADP-Glo reagent to terminate the assay. Shake the 96-well plate for 30 min at ambient temperature then incubate it, then add 50 mL of kinase detection reagent. Read the 96-well plate using the ADP-Glo Luminescence reader. All the assay components were added to the blank control except the substrate. By removing the blank control value you can obtain the corrected activity for each protein kinase target.

[1] = system: MCF 12A (normal epithelial breast cell line); assay: MTT assay on normal cells, MCF 12A; assay type: cell-based, human; conditions: normal epithelial breast cell MCF 12A
Experimental: (§1) The synthesized compounds were evaluated for in-vitro cytotoxic activity against various cell lines such as HeLa (cervical cancer), MCF-7 (breast cancer), HL-60 (Human promyelocytic leukemia), HepG2 (Hepatocellular carcinoma) and MCF 12A (normal epithelial cell) by the MTT assay method. […] The relationship between surviving fraction and drug concentration was plotted to obtain the survival curve of all the cancer cell lines HeLa, MCF-7, HL-60 and HepG2. The response parameter calculated was the IC50 values, which responds to the concentration required for 50% inhibition of cell viability. The in-vitro cytotoxic activity of the synthesized compounds is summarized Table 3.
The presence of non-halogen substituent along with electron donating substituent seriously jeopardise the anticancer potential. […] To determine the selectivity of these molecules between normal and cancerous cells, the designed compounds were also tested against MCF 12A, a normal epithelial breast cell.
(§2) The target compounds were subjected to in vitro cytotoxicity bioassay. In vitro cytotoxicity was determined using a standard MTT assay with protocol appropriate for the individual test system[29]–[31]. The four human cancer cell lines HeLa, MCF-7, HL-60, HepG2 and MCF-12A were cultured in the MEM medium supplemented with 10% FBS, 1% glutamine and […] gentamicin sulfate in a CO2 incubator in a humidified atmosphere of 5% CO2 and 95% air. The test compounds were prepared prior to the experiment by dissolving in 0.1% DMSO and diluted with medium. The cells were then exposed to different concentrations of drugs ([…]) in the volume of […]. Cells in the control wells received the same volume of medium containing 0.1% DMSO. After 24 h, the medium was removed and cell cultures were incubated with […] MTT reagent (1 mg/ml) for 5 h at 37 °C. The known number of cells ([…]) was incubated in a 5% CO2 incubator at 37 °C in the presence of different concentrations of test compounds. After 48 h of drug incubation, the MTT solution was added in each well and absorbance was recorded at 540 nm by an ELISA reader. The experiment was performed in triplicate. Cell survival was calculated as the percentage of MTT inhibition as % growth inhibition = 100 − (mean OD of individual test Group/Mean OD of each Control Group) × 100.

[2] = system: HL-60 (Human promyelocytic leukemia); assay: MTT in vitro cytotoxicity assay, HL-60; assay type: cell-based; conditions: Homo sapiens
Experimental: as §1, §2

HeLa (cervical cancer) = assay: MTT in vitro cytotoxicity assay, HeLa; assay type: cell-based, human; conditions: Homo sapiens
Experimental: as §1, §2

[3] = system: HepG2 (Hepatocellular carcinoma); assay: MTT in vitro cytotoxicity assay, HepG2; assay type: cell-based, human; conditions: Homo sapiens, NA: Not active
Experimental: as §1, §2

T1 sequence (P00533 25-1210): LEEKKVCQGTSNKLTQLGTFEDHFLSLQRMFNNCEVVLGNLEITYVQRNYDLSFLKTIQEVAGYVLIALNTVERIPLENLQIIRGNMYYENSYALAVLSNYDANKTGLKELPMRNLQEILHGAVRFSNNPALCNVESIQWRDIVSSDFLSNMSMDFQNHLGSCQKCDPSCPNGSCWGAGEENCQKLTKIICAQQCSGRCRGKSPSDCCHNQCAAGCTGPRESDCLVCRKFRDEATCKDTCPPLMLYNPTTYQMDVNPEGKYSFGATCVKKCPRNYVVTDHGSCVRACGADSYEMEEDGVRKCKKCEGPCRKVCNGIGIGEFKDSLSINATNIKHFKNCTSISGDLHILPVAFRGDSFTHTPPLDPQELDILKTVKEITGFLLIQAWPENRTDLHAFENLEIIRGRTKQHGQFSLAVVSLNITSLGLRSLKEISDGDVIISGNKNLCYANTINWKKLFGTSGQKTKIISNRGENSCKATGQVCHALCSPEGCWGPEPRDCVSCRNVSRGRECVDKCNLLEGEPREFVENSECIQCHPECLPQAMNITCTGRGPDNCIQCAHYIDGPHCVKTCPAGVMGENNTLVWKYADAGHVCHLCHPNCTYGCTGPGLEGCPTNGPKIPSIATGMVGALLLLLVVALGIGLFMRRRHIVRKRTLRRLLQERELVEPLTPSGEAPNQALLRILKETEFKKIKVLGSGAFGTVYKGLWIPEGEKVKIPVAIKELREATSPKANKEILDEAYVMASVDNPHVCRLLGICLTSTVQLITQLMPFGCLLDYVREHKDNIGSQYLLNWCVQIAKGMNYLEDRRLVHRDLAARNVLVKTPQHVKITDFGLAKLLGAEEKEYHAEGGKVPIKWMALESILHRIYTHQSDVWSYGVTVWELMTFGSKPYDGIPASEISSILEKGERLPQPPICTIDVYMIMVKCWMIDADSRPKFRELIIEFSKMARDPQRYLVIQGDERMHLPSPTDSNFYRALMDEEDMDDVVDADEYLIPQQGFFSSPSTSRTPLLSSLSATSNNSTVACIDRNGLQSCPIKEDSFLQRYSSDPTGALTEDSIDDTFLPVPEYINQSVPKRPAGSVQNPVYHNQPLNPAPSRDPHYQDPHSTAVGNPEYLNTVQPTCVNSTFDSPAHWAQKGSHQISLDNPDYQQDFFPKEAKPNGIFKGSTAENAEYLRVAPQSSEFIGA

- inhibition at 10 µM (EGFR-TK): 96.4%
Compound: CCOC(=O)C1=C(C)N(c2nc(Nc3cccc(F)c3)nc(Nc3cccc(F)c3)n2)C(=S)NC1c1ccc(F)cc1 (centres unmarked) [7l, Ethyl 1-(4,6-bis((3-fluorophenyl)amino)-1,3,5-triazin-2-yl)-4-(4-fluorophenyl)-6-methyl-2-thioxo-1,2,3,4-tetrahydropyrimidine-5-carboxylate]
- IC50 MCF 12A [1]: non-toxic
- IC50 [2]: 23.1 ± 0.36 µM
- IC50 (HeLa (cervical cancer)): 39.7 ± 0.81 µM
- IC50 [3]: 31.2 ± 0.82 µM
